Patent US20120225889A1, “USE OF MACROCYCLIC LACTONE DERIVATIVES FOR THE TREATMENT OF INFLAMMATORY DISORDERS” (PIRAMAL LIFE SCIENCES LIMITED, priority 2010, published 2012)

Tests used:
TNF-α = assay: Screening in LPS stimulated THP-1 cells: TNF-α; type: cell-based; conditions: Homo sapiens, 24 h, ELISA
Protocol: IL-6 (BD Biosciences, USA) production by LPS (Escherchia coli 0127:B8, Sigma, USA) in THP-1 cells (ATCC number: TIB202) was designed as in reference, Journal of Immunology, 151, 5631-5638, (1993), the disclosure of which is incorporated by reference for the teaching of the assay.
THP-1 cells were cultured in RPMI 1640 culture medium (Gibco BRL, UK) containing 100 U/mL penicillin and […] streptomycin, (100× solution, Sigma, USA) containing 10% FBS (JRH Biosciences, USA). 25,000 cells were seeded per well in 96-well plate (Nunc, USA). The cells were differentiated with PMA (Sigma, USA, prepared as 100 μg/mL stock in RPMI and was diluted to 5 ng/mL). The test compound (prepared as 20 mM stock in DMSO and diluted with DMSO to achieve the following final concentrations in the assay: 100, 10, 1, 0.1, 0.01, 0.001 and 0.0001 μM) or vehicle (0.5% DMSO) were added to the cells and the cells were incubated for 30 min at 37° C. LPS (Sigma, USA, prepared as 1 mg/mL stock in PBS) was added to achieve a final concentration of 1 μg/mL. Plates were incubated at 37° C. for 24 h at 5% CO2. Supernatants were harvested, and assayed for TNF-α and IL-6 by ELISA as described by the manufacturer (BD Biosciences, USA). Percent inhibition of cytokine release compared to the control was calculated. The IC50 values were calculated by a nonlinear regression method.

IL-8 = assay: Synovial tissue assay (spontaneous production): IL-8; type: cell-based; conditions: Homo sapiens, synovial tissue cells from rheumatoid arthritis patients, 16 h, read-out: IC50 of IL-8 inhibition
Excerpt: The ability of compounds of the present invention to inhibit spontaneous production of cytokines from freshly isolated human synovial tissue cells was designed as in reference, Lancet, 29, 244-247, (1989) the disclosure of which is incorporated by reference for the teaching of the assay.
Synovial tissue was obtained from rheumatoid arthritis patients undergoing knee replacement surgery. […] Subsequently, the cells were washed 3 times with RPMI 1640 culture medium and resuspended in complete medium (RPMI 1640 culture medium supplemented with 5% FBS and 5% human serum-AB+(Sigma, USA) at a concentration of 1×10^6 cells/mL. The viability of synovial cells was determined by trypan blue dye exclusion and was uniformly ≧98%. For the experiment, 100 μL of cell suspension was added to the wells of a 96-well culture plate (Nunc, USA). Following cell plating, 100 μL of the culture medium and 1 μL of various concentrations of the test compound (test compound was dissolved in DMSO to obtain a stock solution of 20 mM. […] The IC50 values were calculated by a nonlinear regression method using the GraphPad software (Prism 3.03).

CEBPδ = assay: Gene expression profile using RTQ-PCR: CEBPδ; type: cell-based, human; conditions: 3 μM
Protocol: The effect of the compound of example 7 was measured in stimulated untreated cells from the monocytic cell line (THP-1), human monocytes and synovial cells from rheumatoid arthritis patient. The effect of the compound in the THP-1 cell line was measured in terms of gene expression and was expressed as fold changes as compared to the cell stimulated control with no drug treatment.
THP-1 cells, human monocytes and synovial cells were treated with compound of example 7 or vehicle (0.5% DMSO). Total RNA isolation using a commercial RNA extraction kit (Qiagen Corporation, Germany) The first-strand cDNA was synthesized from total RNA using first strand cDNA synthesis kit from Invitrogen Corporation (California, USA). This was followed by real time quantitative polymerase chain reaction (RTQ PCR) using gene specific primers and standard thermal program of initial denaturation at 95° C. for 5 min and cycles of 95° C. for 10 seconds, followed by 60° C. for 30 seconds (Realplex PCR machine from Eppendorf, Germany). Quantitative measurement of products made during PCR cycles was normalized against a housekeeping gene (Actin) and was used to measure the gene expression as fold changes as compared to respective control.

SMILES: C/C=C/C(O)C(C)/C=C/C(=N\O)C(C)C(O)C(C)C1OC(=O)/C(OC)=C/C(C)=C/C(C)C(O)C(CC)C(O)C(C)C/C(C)=C/C=C/C1OC (centres unmarked) [Compound of example 7, (3Z,5E,13E,15E)-18-((5Z,6E,10E)-3,9-Dihydroxy-5-(hydroxymino)-4,8-dimethyldodeca-6,10-dien-2-yl)-9-ethyl-8,10-dihydroxy-3,17-dimethoxy-5,7,11,13-tetramethyl oxacyclooctadeca-3,5,13,15-tetraen-2-one]
- IC50 (TNF-α): 18 µM
- IC50 (IL-8): 1.3 µM
- CEBPδ gene expression (CEBPδ; Human monocytes, 3 h, ± SE, N = 3): −1.4 + 0.4 log fold change
- CEBPδ gene expression (CEBPδ; Synovial cells, 12 h, N = 1): −1.1 log fold change
- CEBPδ gene expression (CEBPδ; THP-1 cells, 12 h, ± SE, N = 3): −1.8 + 1.0 log fold change
